Data set [1] concerns Bemisia tabaci. Description: Insecticidal activity against nymph stage of Bemisia tabaci (sweet potato whitefly) infested cotton leaves assessed as increase in mortality at 0.375 mg ai/seed measured 2 weeks post sowing to 9 weeks under field conditions relative to untreated control. It is filed as functional, organism-based.
The subject of data set [2] is Bemisia tabaci. Description: Insecticidal activity against adult Bemisia tabaci (sweet potato whitefly) infested cotton leaves assessed as increase in mortality at 0.375 mg ai/seed measured 2 weeks post sowing to 9 weeks under field conditions relative to untreated control. It is filed as functional, organism-based.
The test system of data set [3] is Bemisia tabaci. In words: Insecticidal activity against nymph stage of Bemisia tabaci (sweet potato whitefly) infested cotton leaves assessed as increase in mortality at 0.375 mg ai/seed measured 10 to 40 days post germination under green house conditions relative to untreated control. It is filed as functional, organism-based.
Data set [4] has as its system Bemisia tabaci. In words: Insecticidal activity against adult Bemisia tabaci (sweet potato whitefly) infested cotton leaves assessed as increase in mortality at 0.375 mg ai/seed measured 10 to 40 days post germination under green house conditions relative to untreated control. It is filed as functional, organism-based.
The test system of data set [5] is Bemisia tabaci. Description: Insecticidal activity against adult Bemisia tabaci (sweet potato whitefly) infested cotton leaves assessed as effect on laid eggs at 0.375 mg ai/seed measured 10 to 40 days post germination under laboratory conditions relative to untreated control. Format: functional, organism-based.
The subject of data set [6] is Bemisia tabaci. Description: Insecticidal activity against adult Bemisia tabaci (sweet potato whitefly) infested cotton leaves assessed as decrease in egg deposition at 0.375 mg ai/seed measured 10 to 40 days post germination under laboratory conditions relative to untreated control. Format: functional, organism-based.
Data set [7] concerns Bemisia tabaci. Description: Insecticidal activity against nymph stage of Bemisia tabaci (sweet potato whitefly) infested cotton leaves assessed as mortality at 0.375 mg ai/seed measured 10 to 40 days post germination under laboratory conditions relative to untreated control. Format: functional, organism-based.
For data set [8], the system named is Bemisia tabaci. Description: Insecticidal activity against adult Bemisia tabaci (sweet potato whitefly) infested cotton leaves assessed as increase in mortality at 0.375 mg ai/seed measured 10 to 40 days post germination under laboratory conditions relative to untreated control. Format: functional, organism-based.
The subject of data set [9] is Bemisia tabaci. Description: Insecticidal activity against adult Bemisia tabaci (sweet potato whitefly) infested cotton leaves assessed as decrease in egg production at 0.375 mg ai/seed measured 10 to 40 days post germination under green house conditions relative to untreated control. Format: functional, organism-based.
The subject of data set [10] is Cotyledon. Description: Drug uptake in Gossypium hirsutum (cotton) cotyledon at 0.375 mg ai/seed measured 10 days post germination under green house conditions. It is filed as ADME. Particulars: in vivo, other, 240 h.
The test system of data set [11] is Leaf. In words: Drug uptake in Gossypium hirsutum (cotton) leaf at 0.375 mg ai/seed measured 10 days post germination under green house conditions. Format: ADME. The conditions noted are these: in vivo, other, 240 h.
In data set [12] the test system is Bemisia tabaci. Description: Insecticidal activity against nymph stage of Bemisia tabaci (sweet potato whitefly) infested cotton leaves assessed as increase in mortality at 0.342 mg ai/seed measured 2 weeks post sowing to 9 weeks under field conditions relative to untreated control. Format: functional, organism-based.
Data set [13] concerns Bemisia tabaci. In words: Insecticidal activity against adult Bemisia tabaci (sweet potato whitefly) infested cotton leaves assessed as increase in mortality at 0.342 mg ai/seed measured 2 weeks post sowing to 9 weeks under field conditions relative to untreated control. Format: functional, organism-based.
For data set [14], the system named is Cotyledon. In words: Drug uptake in Gossypium hirsutum (cotton) cotyledon at 0.342 mg ai/seed measured 10 days post germination under green house conditions. Particulars: in vivo, other, 240 h. It is filed as ADME.
The subject of data set [15] is Bemisia tabaci. In words: Insecticidal activity against adult Bemisia tabaci (sweet potato whitefly) infested cotton leaves assessed as decrease in egg production at 0.342 mg ai/seed measured 10 to 40 days post germination under green house conditions relative to untreated control. Format: functional, organism-based.
Data set [16] deals with Bemisia tabaci. In words: Insecticidal activity against nymph stage of Bemisia tabaci (sweet potato whitefly) infested cotton leaves assessed as increase in mortality at 0.342 mg ai/seed measured 10 to 40 days post germination under green house conditions relative to untreated control. It is filed as functional, organism-based.
Data set [17] relates to Bemisia tabaci. Description: Insecticidal activity against adult Bemisia tabaci (sweet potato whitefly) infested cotton leaves assessed as increase in mortality at 0.342 mg ai/seed measured 10 to 40 days post germination under green house conditions relative to untreated control. Format: functional, organism-based.
Data set [18] concerns Bemisia tabaci. In words: Insecticidal activity against adult Bemisia tabaci (sweet potato whitefly) infested cotton leaves assessed as decrease in egg deposition at 0.342 mg ai/seed measured 10 to 40 days post germination under laboratory conditions relative to untreated control. It is filed as functional, organism-based.
For data set [19], the system named is Bemisia tabaci. Description: Insecticidal activity against nymph stage of Bemisia tabaci (sweet potato whitefly) infested cotton leaves assessed as increase in mortality at 0.342 mg ai/seed measured 10 to 40 days post germination under laboratory conditions relative to untreated control. It is filed as functional, organism-based.
The subject of data set [20] is Bemisia tabaci. Description: Insecticidal activity against adult Bemisia tabaci (sweet potato whitefly) infested cotton leaves assessed as increase in mortality at 0.342 mg ai/seed measured 10 to 40 days post germination under laboratory conditions relative to untreated control. Format: functional, organism-based.
Data set [21] relates to Bemisia tabaci. Description: Insecticidal activity against adult Bemisia tabaci (sweet potato whitefly) infested cotton leaves assessed as effect on laid eggs at 0.342 mg ai/seed measured 10 to 40 days post germination under laboratory conditions relative to untreated control. Format: functional, organism-based.
The subject of data set [22] is Leaf. In words: Drug uptake in Gossypium hirsutum (cotton) leaf at 0.342 mg ai/seed measured 10 days post germination under green house conditions. It is filed as ADME. The conditions noted are these: in vivo, other, 240 h.

The structures appear in SMILES notation. Activity calls are given as the source filed them. No cut-off for these calls is given here.

Take `O=[N+]([O-])/N=C1\NCCN1Cc1ccc(Cl)nc1`: the result in data set [1], in [2], in [3], in [4], in data set [6] and in data set [7] was Active. The result in data set [8] and in data set [9] was Active. Also, in [5], the outcome was inactive.
`O=[N+]([O-])NC1=NCCN1Cc1ccc(Cl)nc1` [IMIDACLOPRID]: the Drug uptake result in data set [10] and in data set [11] was “Active” in each case.
With `CN1COCN(Cc2cnc(Cl)s2)/C1=N\[N+](=O)[O-]` [THIAMETHOXAM], the outcome in data set [12], in data set [13], in data set [15], in data set [16], in [17] and in data set [18] was Active. For the same molecule, the outcome in data set [19] and in data set [20] was Active. Also, the Drug uptake entry in data set [14] and in data set [22] was “Active” throughout. The result in [21] was inactive.

The values are drawn from ChEMBL document CHEMBL3046934, “Effectiveness of thiamethoxam and imidacloprid seed treatments against Bemisia tabaci (Hemiptera: Aleyrodidae) on cotton” (Pest Manag Sci, 2011).
